Legend:
TGF-β receptor ALK4 = target: T1, TGF-β receptor ALK4 (Homo sapiens, UniProt P36896); settings: cited from earlier work
T1 sequence (P36896 24-505): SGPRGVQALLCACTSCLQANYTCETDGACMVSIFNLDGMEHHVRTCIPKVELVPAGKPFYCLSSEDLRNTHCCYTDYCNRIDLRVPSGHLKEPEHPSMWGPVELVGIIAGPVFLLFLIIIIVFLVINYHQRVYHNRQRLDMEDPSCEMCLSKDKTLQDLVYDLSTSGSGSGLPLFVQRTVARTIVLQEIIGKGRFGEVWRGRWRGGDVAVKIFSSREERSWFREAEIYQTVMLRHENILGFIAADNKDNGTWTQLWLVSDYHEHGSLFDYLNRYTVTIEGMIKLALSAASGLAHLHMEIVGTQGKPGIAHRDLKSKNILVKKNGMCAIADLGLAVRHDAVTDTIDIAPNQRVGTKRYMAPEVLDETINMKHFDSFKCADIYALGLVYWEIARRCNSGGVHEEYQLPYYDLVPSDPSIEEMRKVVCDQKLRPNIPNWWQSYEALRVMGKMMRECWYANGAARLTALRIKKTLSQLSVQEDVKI

TGF-β receptor ALK5 = target: T2, TGF-β receptor ALK5 (Homo sapiens, UniProt P36897); settings: cited from earlier work
T2 sequence (P36897 34-503): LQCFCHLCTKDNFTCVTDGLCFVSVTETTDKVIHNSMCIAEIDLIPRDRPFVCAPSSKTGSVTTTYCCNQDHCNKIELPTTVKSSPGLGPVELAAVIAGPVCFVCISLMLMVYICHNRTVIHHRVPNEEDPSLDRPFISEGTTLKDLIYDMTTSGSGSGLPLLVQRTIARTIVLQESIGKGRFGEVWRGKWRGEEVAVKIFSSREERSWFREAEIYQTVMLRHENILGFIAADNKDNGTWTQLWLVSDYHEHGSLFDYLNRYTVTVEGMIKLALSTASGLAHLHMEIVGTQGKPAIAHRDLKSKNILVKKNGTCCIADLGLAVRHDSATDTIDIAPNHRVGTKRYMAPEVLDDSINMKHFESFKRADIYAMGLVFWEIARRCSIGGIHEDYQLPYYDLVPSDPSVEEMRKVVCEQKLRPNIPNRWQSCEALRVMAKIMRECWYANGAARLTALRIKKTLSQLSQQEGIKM

TGF-β receptor ALK7 = target: T3, TGF-β receptor ALK7 (Homo sapiens, UniProt Q8NER5); settings: cited from earlier work
T3 sequence (Q8NER5 21-493): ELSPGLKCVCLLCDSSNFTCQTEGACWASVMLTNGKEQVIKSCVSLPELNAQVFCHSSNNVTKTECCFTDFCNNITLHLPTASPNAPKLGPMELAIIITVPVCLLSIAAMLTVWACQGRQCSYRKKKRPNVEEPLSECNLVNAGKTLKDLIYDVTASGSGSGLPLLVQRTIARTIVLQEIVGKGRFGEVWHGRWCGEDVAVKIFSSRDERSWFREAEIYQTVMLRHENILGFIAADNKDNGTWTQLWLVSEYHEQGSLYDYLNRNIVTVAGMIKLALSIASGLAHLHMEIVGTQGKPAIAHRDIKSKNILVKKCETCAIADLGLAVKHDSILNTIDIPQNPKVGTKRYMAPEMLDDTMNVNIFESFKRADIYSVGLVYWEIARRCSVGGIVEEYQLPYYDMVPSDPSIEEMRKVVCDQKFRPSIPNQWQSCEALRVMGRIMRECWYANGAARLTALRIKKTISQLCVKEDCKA

mucin 2 = experiment: Detection of mucin 2 mRNA (real-time RT-PCR) in human iPS cell-derived intestinal epithelial cells; format: cell-based
From the text: (§1) iPS cells were allowed to differentiate into intestinal stem cells, which were then subcultured once. Thereafter, the cells were subjected to a maintenance culture according to the culture method of intestinal stem cells, which had been established in the above-described studies, and were then allowed to differentiate into intestinal epithelial cells.
(§2) After the differentiated intestinal epithelial cells had been recovered, RNA was extracted using Agencourt (registered trademark) RNAdvance™ Tissue Kit, in accordance with the instruction manual included therewith.
(§3) Complementary DNA (cDNA) was synthesized using ReverTra Ace (registered trademark) qPCR RT Master Mix, in accordance with the instruction manual included therewith.
(§4) Real-Time RT-PCR was carried out on cDNA used as a template, using KAPA SYBR Fast qPCR Kit, in accordance with the instruction manual included therewith.

chromogranin A (CgA) = experiment: Detection of CgA mRNA (real-time RT-PCR) in human iPS cell-derived intestinal epithelial cells; format: cell-based
From the text: as §1, §2, §3, §4

[1] = 100 μM or 200 μM rebamipide together with 200 μM indomethacin, 6 days

| SMILES | inhibitory activity against TGF-β receptor ALK4 (TGF-β receptor ALK4) | inhibitory activity against TGF-β receptor ALK5 (TGF-β receptor ALK5) | inhibitory activity against TGF-β receptor ALK7 (TGF-β receptor ALK7) | expression level of mucin 2 (mRNA expression level) (mucin 2; 50 μM, 100 μM and 200 μM added to the medium for 6 days, versus control (Con)) | decrease in the expression of mucin 2 (mRNA expression level) caused by indomethacin (mucin 2; [1]) | cytotoxicity (mucin 2; 200 μM added to the medium (R200)) | increase in the expression level of CgA (mRNA expression level) (chromogranin A (CgA); 50 μM, 100 μM and 200 μM added to the medium for 6 days) | decrease in the expression level of CgA (mRNA expression level) caused by indomethacin (chromogranin A (CgA); [1]) |
| --- | --- | --- | --- | --- | --- | --- | --- | --- |
| Cc1cccc(-c2nn(C(=S)Nc3ccccc3)cc2-c2ccnc3ccccc23)n1 [A-83-01] | exhibited inhibitory activity | exhibited inhibitory activity | exhibited inhibitory activity |  |  |  |  |  |
| O=C(NC(Cc1cc(=O)[nH]c2ccccc12)C(=O)O)c1ccc(Cl)cc1 (centres unmarked) [rebamipide] |  |  |  | increased | tended to be suppressed | likely to cause cytotoxicity | not particularly observed | tended to be suppressed |

Source: patent US11725189B2, “Maintenance culture of induced pluripotent stem cell-derived intestinal stem cells” (PUBLIC UNIVERSITY CORPORATION NAGOYA CITY UNIVERSITY, priority 2017, dated 2023)
